Test system: methicillin-resistant S. aureus (MRSA)
Assay: MRSA skin infection, wound closure
Format: in vivo, mice
Details: Day 7
Protocol: FIG. 11B are photos from the top view of mice with skin infection caused by MRSA before (at Day 0) and after different treatments (at Day 7): top left received 2% mupirocin via topical BID for 7 days; top right received 100 mg/kg linezolid via oral BID for 7 days; bottom received 30 mg/kg IM032 via oral BID for 7 days.
Visual wound healing/closure in different treatment groups of mice can be observed in FIG. 11B.

Compound | percentage of wound closure (2% topical twice a day) | percentage of wound closure (100 mg/kg oral twice a day)
C/C(=C\C(=O)OCCCCCCCCC(=O)O)C[C@@H]1OC[C@H](C[C@@H]2O[C@H]2[C@@H](C)[C@H](C)O)[C@@H](O)[C@H]1O [Mupirocin, mupirocin, reference compound] | 43.2% | 
CC(=O)NC[C@H]1CN(c2ccc(N3CCOCC3)c(F)c2)C(=O)O1 [Linezolid, linezolid, reference compound] |  | 48.4%

From patent publication US11040949B2, “Compounds affecting pigment production and methods for treatment of bacterial diseases” (Versitech Limited, priority 2017, dated 2021)
